The results in this text go back to patent US5846940A, “Corneal therapeutic agent” (Okamoto; Sinseiro, priority 1994, dated 1998).

In this experiment the test system is corneas of colored rabbit after excimer laser abrasion. Description: accelerating activity for corneal wound healing after excimer laser treatment (histological observation of corneal slices). In kind it is in vivo. Conditions: eye drop 100 μg/ml; for epithelium regeneration in the excimer-laser irradiated portion / inflammatory changes / thickness of the regenerated epithelium / vacuolation and fibroblast growth in the tunica propria / under the epithelium: single droplet twice a day for 5 to 7 days, optical microscope. The procedure: The following tests were performed with respect to the accelerating activity for the corneal wound healing after excimer laser treatment.
HP 1 and HP 2 were diluted with 1.2 ml of an oxyglutathion eye-perfusion/washing solution (trade name: BSS plus, manufactured by Santen Seiyaku) to obtain a diluted solution in a final concentration of 0.1 mg/ml. 1000 μg/ml of EGF was diluted with 1 ml of the oxyglutathion eye-perfusion/washing solution to obtain a diluted solution in a final concentration of 0.1 mg/ml. FN was diluted with 10 ml of the oxyglutathion eye-perfusion/washing solution to obtain a diluted solution in a final concentration of 0.1 mg/ml.
A colored rabbit was used as a test animal. The following surgical operation was applied to the rabbit.
An excimer laser was radiated to the corneas of both eyes of the rabbit under the condition of 180 mj/10 nsec (10 Hz) per pulse. By this radiation, the surface of central corneal parenchyma was cut off by abrasion in the form of a meniscus having a diameter of 4.5 mm (9.9 diopter) and a maximum center-depth of 70 μm. The excimer laser was radiated by using Omunimed (trade name) manufactured by Summit (U.S.A.).
Each of the aforementioned samples was administered to both eyes twice a day. A single droplet (about 50 μl) was administrated once in the morning and the afternoon for 5 to 7 days.
As Comparative examples, eye drops were prepared by dissolving the aforementioned samples in the oxyglutathion eye perfusion/washing solution in accordance with Table 2 and administered to both eyes of the rabbit.
After completion of droplet administration, right and left eyes were taken out from the rabbit and fixed with a glutathion aldehyde/formalin fixing solution. After the fixation, each cornea including a laser irradiated portion and a non-irradiated portion were excised out. Then, paraffin blocks were prepared in accordance with a customary method and thin-film slices of 5 μm thick were prepared by means of a microtome. The obtained corneal slices were stained with H.E. (hematoxylin-eosin) and then subjected to special staining such as PAS or trichrome.

On to fibronectin [FN], for which the “epithelium regeneration in the excimer-laser irradiated portion” value (from here on “epithelium regeneration”) is “observed in the entire irradiated portion”; the inflammatory changes entry was “inflammatory changes were observed”; the “thickness of the regenerated epithelium” value was “nonuniform”; the “vacuolation and fibroblast growth in the tunica propria / under the epithelium” value was “relatively significant”.

With “EGF: epithelial cell growth factor, manufactured by Bio Medical Technologies”, the “epithelium regeneration” value is “observed in the entire irradiated portion”; the inflammatory changes result was “inflammatory changes were observed”; the “thickness of the regenerated epithelium” value was “nearly uniform”; the “vacuolation and fibroblast growth in the tunica propria / under the epithelium” value is “vacuolation and fibroblast growth were observed”.

For the molecule `CC[C@H](C)[C@H](NC(=O)[C@H](Cc1ccc(O)cc1)NC(=O)[C@@H]1CCCN1C(=O)[C@H](CCCNC(=N)N)NC(=O)[C@H](CCCNC(=N)N)NC(C)=O)C(=O)N[C@@H](CC(C)C)C(=O)O` [HP2, N-acetyl-Arg-Arg-Pro-Tyr-Ile-Leu-OH], the “epithelium regeneration” value is listed as “observed in the entire irradiated portion”; the inflammatory changes result is recorded as “not observed”; the “thickness of the regenerated epithelium” value was “nonuniform”; the “vacuolation and fibroblast growth in the tunica propria / under the epithelium” value is “Vacuolation and fibroblast growth were observed”. Further, the “overall corneal wound healing accelerating / corneal therapeutic effect (conclusion)” value (after excimer laser treatment) is given as “confirmed to have an corneal wound healing accelerating effect”.
